How the values were obtained:
human TLR7 = molecular target: T1, human TLR7 (Homo sapiens, UniProt Q9NYK1); assay: HEK293-Blue-hTLR-7 cells assay; format: cell-based; details: HEK293-Blue-hTLR7 cells, R848 stimulation, 20 hrs, SEAP reporter; read-out: HEK/hTLR7 IC50
T1 construct: host or cells: HEK293 (HEK-Blue hTLR7)
T1 sequence (Q9NYK1 27-1049): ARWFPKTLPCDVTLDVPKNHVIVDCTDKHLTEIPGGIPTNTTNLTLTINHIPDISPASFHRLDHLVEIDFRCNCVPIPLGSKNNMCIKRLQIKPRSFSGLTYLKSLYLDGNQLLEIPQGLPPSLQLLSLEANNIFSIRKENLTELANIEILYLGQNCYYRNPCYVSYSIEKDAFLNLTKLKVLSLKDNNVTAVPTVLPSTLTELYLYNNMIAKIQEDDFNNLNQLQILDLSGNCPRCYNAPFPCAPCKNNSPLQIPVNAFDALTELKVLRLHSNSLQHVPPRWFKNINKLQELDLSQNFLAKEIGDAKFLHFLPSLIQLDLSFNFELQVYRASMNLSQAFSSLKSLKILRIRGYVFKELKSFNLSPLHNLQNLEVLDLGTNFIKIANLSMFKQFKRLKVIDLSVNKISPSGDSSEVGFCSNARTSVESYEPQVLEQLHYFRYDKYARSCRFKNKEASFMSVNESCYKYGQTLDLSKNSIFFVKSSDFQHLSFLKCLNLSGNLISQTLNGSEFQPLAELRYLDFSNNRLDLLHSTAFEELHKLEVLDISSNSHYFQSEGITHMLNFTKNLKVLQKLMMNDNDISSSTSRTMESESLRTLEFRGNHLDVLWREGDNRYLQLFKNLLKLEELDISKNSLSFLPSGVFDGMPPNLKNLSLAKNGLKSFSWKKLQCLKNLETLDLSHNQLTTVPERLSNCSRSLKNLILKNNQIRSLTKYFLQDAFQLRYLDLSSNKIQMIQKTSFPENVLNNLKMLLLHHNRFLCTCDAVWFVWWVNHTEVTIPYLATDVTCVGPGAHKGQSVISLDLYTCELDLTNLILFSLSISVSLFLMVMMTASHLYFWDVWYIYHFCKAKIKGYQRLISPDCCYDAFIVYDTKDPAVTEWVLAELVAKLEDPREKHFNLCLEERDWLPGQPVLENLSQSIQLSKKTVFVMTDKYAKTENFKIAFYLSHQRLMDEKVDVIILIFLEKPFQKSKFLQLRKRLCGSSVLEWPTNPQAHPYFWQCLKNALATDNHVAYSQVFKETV
Excerpt: HEK293-Blue-hTLR-7 cells assay:
A stable HEK293-Blue-hTLR-7 cell line was purchased from InvivoGen (Cat. #: hkb-htlr7, San Diego, Calif., USA). These cells were originally designed for studying the stimulation of human TLR7 by monitoring the activation of NF-κB. A SEAP (secreted embryonic alkaline phosphatase) reporter gene was placed under the control of the IFN-β minimal promoter fused to five NF-κB and AP-1-binding sites. The SEAP was induced by activating NF-κB and AP-1 via stimulating HEK-Blue hTLR7 cells with TLR7 ligands. Therefore the reporter expression was declined by TLR7 antagonist under the stimulation of a ligand, such as R848 (Resiquimod), for incubation of 20 hrs. The cell culture supernatant SEAP reporter activity was determined using QUANTI-Blue™ kit (Cat. #: rep-qb1, Invivogen, San Diego, Ca, USA) at a wavelength of 640 nm, a detection medium that turns purple or blue in the presence of alkaline phosphatase.
HEK293-Blue-hTLR7 cells were incubated at a density of 250,000-450,000 cells/mL in a volume of 170 μL in a 96-well plate in Dulbecco's Modified Eagle's medium (DMEM) containing 4.5 g/L glucose, 50 U/mL penicillin, […], […], 2 mM L-glutamine, 10% (v/v) heat-inactivated fetal bovine serum with addition of 20 μL test compound in a serial dilution in the presence of final DMSO at 1% and 10 μL of 20 uM R848 in above DMEM, perform incubation under 37° C. in a CO2 incubator for 20 hrs. Then 20 μL of the supernatant from each well was incubated with 180 μL Quanti-blue substrate solution at 37° C. for 2 hrs and the absorbance was read at 620˜655 nm using a spectrophotometer. The signaling pathway that TLR7 activation leads to downstream NF-κB activation has been widely accepted, and therefore similar reporter assay was modified for evaluating TLR7 antagonist.

CYP2D6 = molecular target: T2, CYP2D6 (Homo sapiens, UniProt P10635); assay: CYP inhibition assay in human liver microsome; format: in vitro ADME; details: human liver microsomes, probe dextromethorphan, dextromethorphan substrate, percentage inhibition <0: not or weak inhibitor, read-out: CYP 2D6 inhibition % @ 10 μM
T2 construct: tissue BD-Gentest 452117; host or cells: human liver microsomes
T2 sequence (P10635 whole entry): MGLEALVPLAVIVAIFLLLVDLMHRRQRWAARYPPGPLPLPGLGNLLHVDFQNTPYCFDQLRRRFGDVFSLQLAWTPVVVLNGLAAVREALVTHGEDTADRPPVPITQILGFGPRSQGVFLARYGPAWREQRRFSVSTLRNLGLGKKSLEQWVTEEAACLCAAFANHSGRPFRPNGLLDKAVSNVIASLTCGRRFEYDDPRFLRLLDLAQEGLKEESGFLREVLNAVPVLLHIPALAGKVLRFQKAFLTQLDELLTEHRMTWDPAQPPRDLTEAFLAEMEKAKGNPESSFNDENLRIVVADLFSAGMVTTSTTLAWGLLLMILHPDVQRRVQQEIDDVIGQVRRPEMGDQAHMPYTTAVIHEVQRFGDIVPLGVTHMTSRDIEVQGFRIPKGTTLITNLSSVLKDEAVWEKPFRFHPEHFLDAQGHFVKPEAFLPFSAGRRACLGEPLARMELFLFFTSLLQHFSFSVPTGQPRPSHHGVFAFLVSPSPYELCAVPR
Description: This is a high throughput screening assay used for assessment of reversible inhibition of CYP2D6 activity of test compounds in human liver microsome (HLM) in early discovery stage.
10 mM DMSO stock solutions of test compounds were diluted in DMSO to generate 2 mM intermediate stock solution. 250 nL of intermediate stock solution were transferred in duplicate into 3 separate 384 well microtitre plates (assay-ready plates). A mixture of HLM and each substrate was made up. 45 μL of HLM substrate mix was then transferred to each well of an assay ready plate and mixed. The negative (solvent) and positive control (standard inhibitor for CYP 2D6) were included in each assay ready plate. The assay ready plate was warmed to 37° C. in an incubator over 10 minutes. 5 μL pre-warmed NADPH regenerating system was added to each incubation well to start the reaction. Final incubation volume was 50 μL. The assay plate then was placed back in the 37° C. incubator. After 10 minutes incubation, incubates were quenched by addition of 50 μL 100% acetonitrile containing internal standards (20 ng/mL D3-Dextrorphan). The supernatants were collected for RapidFire/MS/MS analysis.
RapidFire online solid phase extraction/sample injection system (Agilent) coupled with API4000 triple quadrupole mass spectrometer (AB Sciex) were used for sample analysis. The mobile phase composed of acetonitrile and water supplemented with 0.1% formic acid. A C4 solid phase extraction cartridge is used for sample separation. MS detection is achieved in positive ion MRM mode.
Peak areas for substrate, metabolite and internal standard are determined using the RapidFire integrator software (version 3.6.12009.12296). Peak area ratios (PAR) of metabolite and internal standard (stable-labelled metabolite) are then calculated. The measurement window for each experiment is then defined:
PAR (0% activity)=average PAR for all incubations containing concentrated inhibitor;
Par (100% activity)=average PAR for all incubations containing no inhibitor (DMSO controls);
% Activity (test inhibitor)=
[PAR(test inhibitor)−PAR(0% activity)]/[PAR(100% activity)−PAR(0% activity)]; % Inhibition (test inhibitor)=100−% Activity (test inhibitor).

| IC50 (human TLR7) | inhibition at 10 min, 10 µM (CYP2D6) | SMILES |
| --- | --- | --- |
| 12 nM | 8.5% | CCN1CCc2cnn(C3CN(C[C@H]4CN(c5ccc(C#N)c6ncccc56)C[C@@H](C)O4)C3)c2C1 [Example 6, 5-[(2S,6R)-2-[[3-(6-ethyl-5,7-dihydro-4H-pyrazolo[3,4-c]pyridin-1-yl)azetidin-1-yl]methyl]-6-methyl-morpholin-4-yl]quinoline-8-carbonitrile] |
| 8 nM | -19.5% | CCN1CCc2cn(C3CN(C[C@H]4CN(c5ccc(C#N)c6ncccc56)C[C@@H](C)O4)C3)nc2C1 [Example 7, 5-[(2S,6R)-2-[[3-(6-ethyl-5,7-dihydro-4H-pyrazolo[3,4-c]pyridin-2-yl)azetidin-1-yl]methyl]-6-methyl-morpholin-4-yl]quinoline-8-carbonitrile] |
| 15 nM | 6% | Cc1nn(C2CN(C[C@H]3CN(c4ccc(C#N)c5ncccc45)C[C@@H](C)O3)C2)c2c1CNCC2 [Example 12, 5-[(2R,6S)-2-methyl-6-[[3-(3-methyl-4,5,6,7-tetrahydropyrazolo[4,3-c]pyridin-1-yl)azetidin-1-yl]methyl]morpholin-4-yl]quinoline-8-carbonitrile] |
| 14 nM | 3% | Cc1c2c(nn1C1CN(C[C@H]3CN(c4ccc(C#N)c5ncccc45)C[C@@H](C)O3)C1)CCNC2 [Example 13, 5-[(2R,6S)-2-methyl-6-[[3-(3-methyl-4,5,6,7-tetrahydropyrazolo[4,3-c]pyridin-2-yl)azetidin-1-yl]methyl]morpholin-4-yl]quinoline-8-carbonitrile] |
| 9 nM | -10.5% | Cc1c2c(nn1C1CN(C[C@H]3CN(c4ccc(C#N)c5ncccc45)C[C@@H](C)O3)C1)CCN(C)C2 [Example 15, 5-[(2S,6R)-2-[[3-(3,5-dimethyl-6,7-dihydro-4H-pyrazolo[4,3-c]pyridin-2-yl)azetidin-1-yl]methyl]-6-methyl-morpholin-4-yl]quinoline-8-carbonitrile] |

Continued, compound first:

| SMILES | IC50 (human TLR7) | inhibition at 10 min, 10 µM (CYP2D6) |
| --- | --- | --- |
| C[C@@H]1CN(c2ccc(C#N)c3ncccc23)C[C@H](CN2CC(n3cc4c(n3)CN(C)CC4)C2)O1 [Example 5, 5-[(2R,6S)-2-methyl-6-[[3-(6-methyl-5,7-dihydro-4H-pyrazolo[3,4-c]pyridin-2-yl)azetidin-1-yl]methyl]morpholin-4-yl]quinoline-8-carbonitrile] | 4 nM | -1.5% |
| CC(C)N1CCc2cnn(C3CN(C[C@H]4CN(c5ccc(C#N)c6ncccc56)C[C@@H](C)O4)C3)c2C1 [Example 8, 5-[(2S,6R)-2-[[3-(6-isopropyl-5,7-dihydro-4H-pyrazolo[3,4-c]pyridin-1-yl)azetidin-1-yl]methyl]-6-methyl-morpholin-4-yl]quinoline-8-carbonitrile] | 18 nM | 11% |
| CC(C)N1CCc2cn(C3CN(C[C@H]4CN(c5ccc(C#N)c6ncccc56)C[C@@H](C)O4)C3)nc2C1 [Example 9, 5-[(2S,6R)-2-[[3-(6-isopropyl-5,7-dihydro-4H-pyrazolo[3,4-c]pyridin-2-yl)azetidin-1-yl]methyl]-6-methyl-morpholin-4-yl]quinoline-8-carbonitrile] | 12 nM | 15% |
| C[C@@H]1CN(c2ccc(C#N)c3ncccc23)C[C@H](CN2CC(n3cc4c(n3)CNC4)C2)O1 [Example 11, 5-[(2S,6R)-2-[[3-(5,6-dihydro-4H-pyrrolo[3,4-c]pyrazol-2-yl)azetidin-1-yl]methyl]-6-methyl-morpholin-4-yl]quinoline-8-carbonitrile] | 17 nM | -6% |
| C[C@@H]1Cc2c(cnn2C2CN(C[C@H]3CN(c4ccc(C#N)c5ncccc45)C[C@@H](C)O3)C2)CN1 [Example 16, 5-[(2R,6S)-2-methyl-6-[[3-[(6R)-6-methyl-4,5,6,7-tetrahydropyrazolo[4,3-c]pyridin-1-yl]azetidin-1-yl]methyl]morpholin-4-yl]quinoline-8-carbonitrile] | 4 nM | 8% |
